The values below come from patent publication US8309685B2 (Celgene Avilomics Research, Inc., priority 2007, dated 2012).

The IC90 is the concentration needed for an effect of 90%. Broadly, the EC90 is the point of the concentration-response curve where the effect stands at 90%. A high value points to a need for much substance. In general, EC50 refers to the concentration that produces a half-maximal response. High values mean weaker potency, low ones greater potency.

Assay [1] concerns the target T1, NS3 protease self-cleavage in Huh-7-Luc-Neo-ET wild-type replicon cells (Hepatitis C virus genotype 1b, UniProt Q9WMX2, E1202G/T1280I).
T1 construct: host or cells: Huh-7-Luc-Neo-ET (human Huh7 hepatoma cells carrying the replicon)
Put plainly: Inhibition of protease self cleavage after compound removal, wild-type replicon cells. It is filed as cell-based. The note with it: up to 24 hours after compound removal. How it is done:
Inhibition of Protease Self Cleavage
Huh-7-Luc-Neo-ET cells were plated in Replicon Assay Medium (RPMI supplemented with 5% FBS, 1× non-essential amino acids and pen/strep) at a density of 1×10^5 cells/well in 12 well plates. Eight hours later the media was removed and replaced with 1 ml media containing test compound (5 wells per compound) and 0.02% DMSO and the cells were returned to the incubator overnight. Sixteen hours later 1 well from each compound and 1 untreated well were washed with PBS, then lysed and scraped into 30 ul of Cell Extraction Buffer (Biosource, Camarillo, Calif.) plus Complete Protease Inhibitor (Roche, Indianapolis, Ind.). The remaining wells were rinsed 2× with PBS then fed with Replicon Media and returned to the incubator. […]
Cell lysates were separated by SDS-Page (4-20%) and transferred to Immobilon-P PVDF membrane (Millipore Corporation, Mass.) and blotted with polyclonal anti NS3 antibody (Bioenza, Calif.). Blots were scanned on an Odyssey infrared scanner from Licor and the FL band and cleavage products were quantified separately using the Licor software provided with the scanner. The cleavage product was calculated as a percentage of the total NS3 in each sample and then normalized to the DMSO control so that the DMSO control reflects 100% activity.
A general note: In antiviral work, replicon cells carry a viral genome segment that copies itself.

Assay [2] has as its target T2, D168A mutant of the HCV NS3/4A 1b protease enzyme (Hepatitis C virus genotype 1b, UniProt P26663, D1194A).
T2 construct: 10× stocks of NS3/4A protease enzyme from Bioenza (Mountain View, Calif.); purchased Bioenza (Mountain View, Calif.)
Kind of assay: HCV Protease FRET Assay (IC50_APP), D168A mutant. It counts as biochemical. The note with it: apparent IC50, D168A mutant; read-out: IC50_APP, HCV D168A.

The target in assay [3] is T3, A156T mutant of the HCV NS3/4A 1b protease enzyme (Hepatitis C virus genotype 1b, UniProt P26663, A1182T).
T3 construct: 10× stocks of NS3/4A protease enzyme from Bioenza (Mountain View, Calif.); purchased Bioenza (Mountain View, Calif.)
Put plainly: HCV Protease FRET Assay (IC50_APP), A156T mutant. It is filed as biochemical. The note with it: apparent IC50, A156T mutant; read-out: IC50_APP, HCV A156T.

Assay [4] relates to HCV RNA replicon in cell line ET (luc-ubi-neo/ET), human Huh7 hepatoma. Put plainly: Method A: HCV RNA replicon antiviral assay (luciferase, ET cell line). The note with it: Hepatitis C virus, Huh-7, assay described in Example 22. It counts as cell-based, Hepatitis C virus. The method, boiled down:
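ET replicon cells (Huh7 carrying luciferase-reporter HCV replicon) plated at 5×10^3 cells/well and exposed 72 hr to six 3-fold drug concentrations in DMEM/5% FBS. Replicon luciferase gave EC50/EC90; CytoTox-1 cell counts gave IC50 (viability); […]. Interferon alpha-2b served as positive control.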

The target of assay [5] is T4, wild type HCV NS3/4A 1b protease enzyme (Hepatitis C virus genotype 1b, UniProt P26663).
T4 construct: 10× stocks of NS3/4A protease enzyme from Bioenza (Mountain View, Calif.); purchased Bioenza (Mountain View, Calif.)
Put plainly: HCV Protease FRET Assay (IC50_APP), wild type. It is filed as biochemical.

The target of assay [6] is T5, NS3 protease with R155K mutation in modified replicon system (Hepatitis C virus genotype 1b, UniProt Q9WMX2, E1202G/R1181K/T1280I).
T5 construct: modified replicon system where the NS3 protease contains a clinically observed mutation; expressed in transfected cells; host or cells: Huh7-Lunet cells transfected with in vitro transcribed replicon RNA
Put plainly: Inhibition of protease self cleavage after compound removal, R155K replicon system. It counts as cell-based. Here is the method: Constructs containing clinically relevant mutations were generated by performing site-directed mutagenesis on the pFK-I389-luc-ubi-neo-NS3-3′ET plasmid (ReBLikon Gmbh (Heidelberg, Germany)). using the QuickChange II Site-Directed Mutagenesis Kit (Stratagene, La Jolla, Calif.) according to manufacturer's directions and with the primers described in Table 7, below.
Huh-7-Luc-Neo-ET cells were plated in Replicon Assay Medium (RPMI supplemented with 5% FBS, 1× non-essential amino acids and pen/strep) at a density of 1×10^5 cells/well in 12 well plates. Eight hours later the media was removed and replaced with 1 ml media containing test compound (5 wells per compound) and 0.02% DMSO and the cells were returned to the incubator overnight. […]
Cell lysates were separated by SDS-Page (4-20%) and transferred to Immobilon-P PVDF membrane (Millipore Corporation, Mass.) and blotted with polyclonal anti NS3 antibody (Bioenza, Calif.). Blots were scanned on an Odyssey infrared scanner from Licor and the FL band and cleavage products were quantified separately using the Licor software provided with the scanner. The cleavage product was calculated as a percentage of the total NS3 in each sample and then normalized to the DMSO control so that the DMSO control reflects 100% activity. […]

The test system of assay [7] is HCV RNA replicon in cell line ET (luc-ubi-neo/ET), human Huh7 hepatoma. Kind of assay: Luciferase Assay (Example 35), replicon-derived luciferase activity. The note with it: Hepatitis C virus, Huh-7, assay described in Example 35. It is filed as cell-based. A digest of the protocol:
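Huh7-derived ET cells carrying a luciferase-reporter HCV replicon, 5×10^3 cells/well, exposed 72 h to six 3-fold compound concentrations in DMEM with 5% FBS. Replicon luciferase gives EC50/EC90; Cell Titer Blue cell number gives cytotoxic IC50, with SI50 as their ratio. Interferon alpha-2b served as positive control.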

The target in assay [8] is T6, HCV NS3/4A genotype 1a (Hepatitis C virus genotype 1a, UniProt P27958).
T6 construct: Mass spectrometric analysis of HCV NS3/4A genotypes 1a, 1b, 2a, and 3a
Put plainly: Mass spectrometric analysis of covalent modification, genotype 1a. The note with it: 10× excess of compound, 3 hr. It is filed as binding. Here is the method: (§1) Mass spectrometric analysis of HCV NS3/4A genotypes 1a, 1b, 2a, and 3a in the presence of test compound I-96 was performed using the following protocol: HCV NS3/4A was incubated for 3 hr at a 10× fold access of test compound to protein. 2 ul aliquots of the samples were diluted with 10 ul of 0.1% TFA prior to micro C4 ZipTipping directly onto the MALDI target using Sinapinic acid as the desorption matrix (10 mg/ml in 01% TFA:Acetonitrile 50:50). For intact protein mass measurement the instrument was set in Linear mode using a pulsed extraction setting of 24,500 and apomyoglobin as the standard to calibrate the instrument.

Assay [9] addresses T7, HCV NS3/4A wild type (genotype 1b) (Hepatitis C virus genotype 1b, UniProt P26663).
T7 construct: mass spectroscopic analysis of HCV NS3/4A wild-type protease domain; purchased Bioenza Calif
Kind of assay: Mass spectrometric analysis (MALDI-TOF) of covalent modification, HCV wild type. The note with it: 10-fold excess of compound to protein, 3 hrs. It is filed as binding. Here is the method: Mass spectrometric analysis of HCV wild type or HCV variant C159S in the presence of test compound was performed. 100 pmols of HCV wild type (Bioenza Calif.) was incubated with compound for 1 hr and 3 hrs at 10-fold access of […] to protein. 1 ul aliquots of the samples (total volume of 4.24 ul) were diluted with 10 ul of 0.1% TFA prior to micro C4 ZipTipping directly onto the MALDI target using Sinapinic acid as the desorption matrix (10 mg/ml in 01% TFA:Acetonitrile 50:50). Analyses were performed on a Shimadzu Biotech Axima TOF^2 (Shimadzu Instruments) matrix-assisted-laser desorption/ionization Time-of-Flight (MALDI-TOF) mass spectrometer. The same procedure was carried out on 100 pmols of HCV C159S mutant of HCV protease for 3 hrs at 10-fold excess of (I-3) to protein.
As depicted in FIGS. 2, 3, 4, and 5, mass spectrometric analysis of HCV wild type or HCV mutants in the presence of test compound (I-3) was performed. […] 1 ul aliquots of the samples were diluted with 10 ul of 0.1% TFA prior to micro C4 ZipTipping directly onto the MALDI target using Sinapinic acid as the desorption matrix (10 mg/ml in 0.1% TFA:Acetonitrile 50:50).
as §1, with “wild type (genotype 1b)” for “NS3/4A genotypes 1a, 1b, 2a, and 3a”, “compounds I-73 and I-75” for “compound I-96”, “NS3/4A wild type (wt)” for “NS3/4A”, “1” for “3”, “0.1%” for “01%”
Mass spectrometric analysis of HCV NS3/4A genotypes 1a, 1b, 2a, and 3a in the presence of test compound I-96 was performed using the following protocol: HCV NS3/4A was incubated for 3 hr at a 10× fold access of test compound to protein. […]

The target in assay [10] is T8, C159S mutant of the HCV NS3/4A 1b protease enzyme (Hepatitis C virus genotype 1b, UniProt P26663, C1185S).
T8 construct: 10× stocks of NS3/4A protease enzyme from Bioenza (Mountain View, Calif.); purchased Bioenza (Mountain View, Calif.)
Put plainly: HCV Protease FRET Assay (IC50_APP), C159S mutant. It counts as biochemical. The note with it: apparent IC50, C159S mutant. How it is done:
HCV Protease FRET Assay for WT and Mutated NS3/4A 1b Enzymes (IC50—APP).
The following protocol was used to generate “apparent” IC50 (IC50—APP) values as depicted in Table 6, below. […] 5 μL of each enzyme were added to Corning (#3575) 384-well, black, microtiter plates (Corning, N.Y.) after spotting a 0.5 μL volume of 50% DMSO and serially diluted compounds prepared in 50% DMSO. Protease reactions were immediately started after enzyme addition with the addition of 45 μL of the FRET substrate and monitored for 60-90 minutes at λex485/λem520 in a Synergy^4 plate reader from BioTek (Winooski, Vt.). At the conclusion of each assay, progress curves from each well were examined for linear reaction kinetics and fit statistics (R^2, 95% confidence intervals, absolute sum of squares).
The compound numbers correspond to the compound numbers in Table 3. […] ;

The target in assay [11] is T9, R155K mutant of the HCV NS3/4A 1b protease enzyme (Hepatitis C virus genotype 1b, UniProt P26663, R1181K).
T9 construct: 10× stocks of NS3/4A protease enzyme from Bioenza (Mountain View, Calif.); purchased Bioenza (Mountain View, Calif.)
Kind of assay: HCV Protease FRET Assay (IC50_APP), R155K mutant. It is filed as biochemical. The note with it: apparent IC50, R155K mutant; read-out: IC50_APP, HCV R155K.

The target in assay [12] is T10, HCV NS3/4A genotype 3a (Hepatitis C virus genotype 3a, UniProt Q81258).
T10 construct: Mass spectrometric analysis of HCV NS3/4A genotypes 1a, 1b, 2a, and 3a
Put plainly: Mass spectrometric analysis of covalent modification, genotype 3a. It counts as binding. The note with it: 10× excess of compound, 3 hr. How it is done: as §1

In assay [13] the target is T11, HCV NS3/4A genotype 2a (Hepatitis C virus genotype 2a, UniProt P26660).
T11 construct: Mass spectrometric analysis of HCV NS3/4A genotypes 1a, 1b, 2a, and 3a
Put plainly: Mass spectrometric analysis of covalent modification, genotype 2a. It counts as binding. The note with it: 10× excess of compound, 3 hr. How it is done: as §1

Molecules are shown by their SMILES.

On to `C=CC(=O)N[C@H](C)C(=O)N1C[C@H](Oc2cc(-c3ccccc3)nc3cc(OC)ccc23)C[C@H]1C(=O)N[C@]1(C(=O)NS(=O)(=O)C2CC2)C[C@H]1C=C` [Compound I-54, (2S,4R)-1-((R)-2-acrylamidopropanoyl)-N-((1R,2S)-1-(cyclopropylsulfonylcarbamoyl)-2-vinylcyclopropyl)-4-(7-methoxy-2-phenylquinolin-4-yloxy)pyrrolidine-2-carboxamide], for which the “Inhibition of NS3 protease activity (self-cleavage) after compound removal” value in [1] is recorded as “virtually complete inhibition”. The IC50 in assay [2] was 10 to 100 nM; in assay [3], 10 to 100 nM; in [4] (read-out: Replicon (IC50)), less than 10 nM; in assay [5], less than 10 nM. The compound also displayed an IC90 in assay [4] (IC90) of less than 10 nM. Further, the “Duration of inhibition of mutant protease activity after compound removal” value in assay [6] is reported as “at least 24 hours”.

In assay [7] (EC90), `C=C[C@@H]1C[C@]1(NC(=O)[C@@H]1C[C@@H](Oc2nccc3cc(OC)ccc23)CN1C(=O)[C@H](CCC(=O)C=C(C)C)NC(=O)OC(C)(C)C)C(=O)NS(=O)(=O)C1CC1` [Compound I-96, {1-[2-(1-Cyclopropanesulfonylaminocarbonyl-2-vinyl-cyclopropylcarbamoyl)-4-(6-methoxy-isoquinolin-1-yloxy)-pyrrolidine-1-carbonyl]-6-methyl-4-oxo-hept-5-enyl}-carbamic acid tert-butyl ester] showed a 90% effect concentration (EC90) of 10 to 100 nM. This compound registered a concentration giving a half-maximal response (EC50) in assay [7] of less than 10 nM. Also, the IC50 in [2] was 100 to 1000 nM; in assay [3] it was 10 to 100 nM; in [10], less than 10 nM; in assay [11] it was 10 to 100 nM; in assay [5], less than 10 nM. For the same compound, in assay [8], the “Covalent modification of HCV NS3/4A genotype 1a by mass spectrometry” value is recorded as “measurable covalent modification”. Further, the “Covalent modification of HCV wild type by mass spectrometry” value in assay [9] is listed as “measurable covalent modification”. Besides, the “Covalent modification of HCV NS3/4A genotype 3a by mass spectrometry” value in assay [12] is “measurable covalent modification”. Also, in [13], the “Covalent modification of HCV NS3/4A genotype 2a by mass spectrometry” value was “measurable covalent modification”.
